# Like-named read-outs stand apart in the source and are kept apart here.
# Assays:
# Parameters in all cases: host or cells: CHO cells, stably transfected
# M4 muscarinic receptor [1] = biological target: T1, M4 muscarinic receptor (Homo sapiens, UniProt P08173); assay: inhibition of forskolin-stimulated cAMP, M4 CHO cells (M4Gi); format: cell-based; conditions: for Emax: CHO; for τ: operational efficacy; for RAi: relative to carbachol; for RAi / Δlog(τ/KA): Tables 2, 3, 7; for Δlog(τ/KA): to carbachol
# T1 sequence (P08173 1-479): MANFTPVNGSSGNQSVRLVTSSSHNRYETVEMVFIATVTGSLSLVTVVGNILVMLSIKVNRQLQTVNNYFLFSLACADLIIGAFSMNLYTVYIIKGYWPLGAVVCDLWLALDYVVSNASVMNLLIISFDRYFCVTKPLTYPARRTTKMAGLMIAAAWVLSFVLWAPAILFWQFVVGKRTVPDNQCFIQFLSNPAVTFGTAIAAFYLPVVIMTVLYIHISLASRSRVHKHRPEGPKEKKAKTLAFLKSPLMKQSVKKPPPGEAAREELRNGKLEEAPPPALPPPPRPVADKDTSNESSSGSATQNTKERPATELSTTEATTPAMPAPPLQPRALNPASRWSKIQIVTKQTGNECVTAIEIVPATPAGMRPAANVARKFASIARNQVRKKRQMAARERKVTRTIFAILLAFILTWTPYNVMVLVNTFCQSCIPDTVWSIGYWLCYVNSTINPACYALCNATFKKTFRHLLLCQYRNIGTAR
# M4 muscarinic receptor [2] = biological target: T1, M4 muscarinic receptor; assay: [3H]NMS competition binding, M4 CHO membranes
# M3 muscarinic receptor = M3 muscarinic receptor (Homo sapiens, UniProt P20309); assay: [3H]NMS competition binding, M3 CHO membranes; conditions: competition with 1 nM [3H]NMS; read-out: Inhibition constants (Ki) as negative logarithms, M3 (converted)
# Sequence of M3 muscarinic receptor (P20309 whole entry): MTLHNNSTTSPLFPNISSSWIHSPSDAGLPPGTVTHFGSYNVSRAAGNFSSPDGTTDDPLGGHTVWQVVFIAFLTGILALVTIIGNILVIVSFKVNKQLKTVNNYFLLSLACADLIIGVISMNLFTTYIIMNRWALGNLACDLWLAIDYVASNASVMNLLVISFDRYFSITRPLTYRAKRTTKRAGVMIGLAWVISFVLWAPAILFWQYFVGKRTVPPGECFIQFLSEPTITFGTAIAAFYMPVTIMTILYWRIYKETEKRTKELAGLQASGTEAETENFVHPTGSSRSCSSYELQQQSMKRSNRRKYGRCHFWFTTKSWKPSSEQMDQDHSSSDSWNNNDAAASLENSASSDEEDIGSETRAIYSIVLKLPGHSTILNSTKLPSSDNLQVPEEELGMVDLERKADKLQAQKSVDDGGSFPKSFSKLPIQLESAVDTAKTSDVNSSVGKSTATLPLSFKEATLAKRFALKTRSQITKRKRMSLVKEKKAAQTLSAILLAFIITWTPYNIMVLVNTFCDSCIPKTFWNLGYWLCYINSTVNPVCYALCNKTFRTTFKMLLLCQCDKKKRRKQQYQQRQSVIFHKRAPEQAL
# M1 muscarinic receptor = biological target: T2, M1 muscarinic receptor (Homo sapiens, UniProt P11229); assay: accumulation of inositol phosphates IPX, M1 CHO cells (M1Gq); format: cell-based; conditions: for E′MAX / τ / Kd / EC50: Table 7; for τ: operational efficacy; for Kd: operational model, read-out: pKA (converted); for EC50: read-out: pEC50 (converted)
# T2 sequence (P11229 1-460): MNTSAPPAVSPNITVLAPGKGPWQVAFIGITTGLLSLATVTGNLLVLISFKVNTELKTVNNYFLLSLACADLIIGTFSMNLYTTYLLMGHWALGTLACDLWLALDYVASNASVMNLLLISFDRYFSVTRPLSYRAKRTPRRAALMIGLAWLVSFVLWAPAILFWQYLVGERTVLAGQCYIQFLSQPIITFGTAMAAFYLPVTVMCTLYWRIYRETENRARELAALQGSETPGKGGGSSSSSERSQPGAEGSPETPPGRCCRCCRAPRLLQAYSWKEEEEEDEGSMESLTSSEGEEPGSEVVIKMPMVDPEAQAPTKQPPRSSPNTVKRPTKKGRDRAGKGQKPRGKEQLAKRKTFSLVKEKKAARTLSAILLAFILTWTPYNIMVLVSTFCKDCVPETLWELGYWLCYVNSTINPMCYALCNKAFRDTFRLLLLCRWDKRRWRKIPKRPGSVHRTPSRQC
# M2 muscarinic receptor = biological target: T3, M2 muscarinic receptor (Homo sapiens, UniProt P08172); assay: inhibition of forskolin-stimulated cAMP, M2 CHO cells (M2Gi); format: cell-based; conditions: for Emax: CHO; for τ: operational efficacy; for RAi: relative to carbachol; for RAi / Δlog(τ/KA): Tables 2, 3, 7; for Δlog(τ/KA): to carbachol
# T3 sequence (P08172 1-466): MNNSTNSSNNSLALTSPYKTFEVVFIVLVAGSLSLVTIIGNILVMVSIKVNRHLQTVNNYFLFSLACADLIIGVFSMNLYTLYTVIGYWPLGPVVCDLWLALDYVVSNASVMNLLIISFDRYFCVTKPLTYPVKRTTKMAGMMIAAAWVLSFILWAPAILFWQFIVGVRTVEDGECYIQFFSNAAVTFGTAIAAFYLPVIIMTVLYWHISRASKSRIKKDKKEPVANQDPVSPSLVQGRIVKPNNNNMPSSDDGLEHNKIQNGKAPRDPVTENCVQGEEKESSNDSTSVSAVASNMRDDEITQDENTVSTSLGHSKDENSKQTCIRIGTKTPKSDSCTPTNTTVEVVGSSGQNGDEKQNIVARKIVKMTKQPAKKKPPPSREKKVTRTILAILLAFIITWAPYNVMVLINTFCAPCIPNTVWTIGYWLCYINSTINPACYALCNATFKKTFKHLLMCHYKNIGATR
# M5 muscarinic receptor = biological target: T4, M5 muscarinic receptor (Homo sapiens, UniProt P08912); assay: accumulation of IPX, M5 CHO cells (M5Gq); format: cell-based; conditions: for τ: operational efficacy; for RAi: relative to carbachol; for RAi / Δlog(τ/KA): Tables 2, 3, 7; for Δlog(τ/KA): to carbachol
# T4 sequence (P08912 1-532): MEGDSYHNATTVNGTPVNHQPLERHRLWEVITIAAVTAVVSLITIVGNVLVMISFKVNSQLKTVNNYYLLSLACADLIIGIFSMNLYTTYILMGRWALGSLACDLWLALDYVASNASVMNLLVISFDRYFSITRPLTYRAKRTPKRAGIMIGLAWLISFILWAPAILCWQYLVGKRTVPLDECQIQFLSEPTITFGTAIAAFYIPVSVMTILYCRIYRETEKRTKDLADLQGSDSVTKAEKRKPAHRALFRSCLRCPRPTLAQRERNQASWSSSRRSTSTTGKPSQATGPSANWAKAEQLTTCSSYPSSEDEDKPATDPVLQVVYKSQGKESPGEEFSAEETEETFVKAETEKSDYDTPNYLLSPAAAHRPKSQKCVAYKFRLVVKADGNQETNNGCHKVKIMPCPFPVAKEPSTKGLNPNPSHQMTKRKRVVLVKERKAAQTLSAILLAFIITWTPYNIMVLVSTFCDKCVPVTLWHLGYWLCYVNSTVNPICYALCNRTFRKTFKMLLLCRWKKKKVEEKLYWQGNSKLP
# [3] = M4 (↓cAMP), preferential response, Table 7, read-out: E′MAX
# [4] = M4 (↓cAMP), preferential response, Table 7
# [5] = M4 (↓cAMP), preferential response, Table 7, operational model, read-out: pKA (converted)
# [6] = M4 (↓cAMP), preferential response, Table 7, read-out: pEC50 (converted)
# [7] = M4 (↓cAMP), preferential response
# [8] = competition with 1 nM [3H]NMS, read-out: Inhibition constants (Ki) as negative logarithms, M4 (converted)
# [9] = M1 (↑IPX), preferential response
# [10] = M1 (↑IPX), preferential response, relative to carbachol, Tables 2, 3, 7
# [11] = M1 (↑IPX), preferential response, to carbachol, Tables 2, 3, 7
# [12] = M2 (↓cAMP), preferential response, Table 7, read-out: E′MAX
# [13] = M2 (↓cAMP), preferential response, Table 7
# [14] = M2 (↓cAMP), preferential response, Table 7, operational model, read-out: pKA (converted)
# [15] = M2 (↓cAMP), preferential response, Table 7, read-out: pEC50 (converted)
# [16] = M2 (↓cAMP), preferential response
# [17] = M5 (↑IPX), preferential response, Table 7
# [18] = M5 (↑IPX), preferential response, Table 7, operational model, read-out: pKA (converted)
# [19] = M5 (↑IPX), preferential response, Table 7, read-out: pEC50 (converted)
# [20] = M5 (↑IPX), preferential response
Structure (SMILES),Emax (M4 muscarinic receptor [1]; [3]) [%],τ (M4 muscarinic receptor [1]; [4]),Kd (M4 muscarinic receptor [1]; [5]) [µM],EC50 (M4 muscarinic receptor [1]; [6]) [µM],RAi (M4 muscarinic receptor [1]; [7]),Δlog(τ/KA) (M4 muscarinic receptor [1]; [7]),Ki (M4 muscarinic receptor [2]; [8]) [µM],Ki (M3 muscarinic receptor) [µM],E′MAX (M1 muscarinic receptor; [9]) [fold over basal],τ (M1 muscarinic receptor; [9]),Kd (M1 muscarinic receptor; [9]) [µM],EC50 (M1 muscarinic receptor; [9]) [µM],RAi (M1 muscarinic receptor; [10]),τ (M2 muscarinic receptor; [13]),RAi (M2 muscarinic receptor; [16]),Δlog(τ/KA) (M2 muscarinic receptor; [16]),E′MAX (M5 muscarinic receptor; [17]) [fold over basal],τ (M5 muscarinic receptor; [17]),RAi (M5 muscarinic receptor; [20]),Δlog(τ/KA) (M5 muscarinic receptor; [20]),also measured
"Brc1ccc(CN2CC=CCC2)s1.Cl [Compound 6C, 1-[(5-bromothiophen-2-yl)methyl]-1,2,3,6-tetrahydropyridin-1-ium chloride]",13 ± 1,0.38 ± 0.04,2.51,2.14,0.0041 ± 0.005,2.13 ± 0.12,12.6,14.1,2.1 ± 0.2,0.03 ± 0.01,3.98,3.47,0.0024 ± 0.0002,0.38 ± 0.04,0.0070 ± 0.0006,2.02 ± 0.22,1.36 ± 0.08,0.02 ± 0.01,0.0009 ± 0.0003,3.03 ± 0.95,Δlog(τ/KA) (M1 muscarinic receptor; [11]): 2.62 ± 0.36; Emax (M2 muscarinic receptor; [12]): 24 ± 1%; Kd (M2 muscarinic receptor; [14]): 3.16 µM; EC50 (M2 muscarinic receptor; [15]): 2.19 µM; Kd (M5 muscarinic receptor; [18]): 7.94 µM; EC50 (M5 muscarinic receptor; [19]): 7.59 µM
"C[N+]1(Cc2ccc(Cl)s2)CC=CCC1.[I-] (stereo not drawn) [Compound 7D, 1-[(5-chlorothiophen-2-yl)methyl]-1-methyl-1,2,3,6-tetrahydropyridin-1-ium iodide]",–,0.46 ± 0.05,–,–,0.0048 ± 0.0005,2.14 ± 0.19,–,3.39,7.9 ± 0.8,0.26 ± 0.03,3.98,3.39,–,0.83 ± 0.08,0.008 ± 0.001,2.05 ± 0.19,3.5 ± 0.2,0.14 ± 0.01,0.0049 ± 0.0006,2.31 ± 0.50,"EC50 (M4 muscarinic receptor [1]): 4.68 µM; Kd (M4 muscarinic receptor [1]): 6.31 µM; Emax (M4 muscarinic receptor [1]): 28 ± 1%; Ki (M4 muscarinic receptor [2]; Inhibition constants (Ki) as negative logarithms, M4, competition with 1 nM [3H]NMS): 3.09 µM; RAi (M1 muscarinic receptor): 0.0165 ± 0.0003; Δlog(τ/KA) (M1 muscarinic receptor): 1.78 ± 0.21; EC50 (M2 muscarinic receptor): 3.89 µM; Kd (M2 muscarinic receptor): 6.31 µM; Emax (M2 muscarinic receptor): 40 ± 2%; Kd (M5 muscarinic receptor): 12.6 µM; EC50 (M5 muscarinic receptor; pEC50, M5 (↑IPX), preferential response, Table 7): 9.77 µM"
"Cc1ccc(CN2CC=CCC2)s1.Cl [Compound 6B, 1-[(5-methylthiophen-2-yl)methyl]-1,2,3,6-tetrahydropyridin-1-ium chloride]",25 ± 2,0.39 ± 0.04,12.6,9.77,0.0020 ± 0.0002,2.51 ± 0.20,28.8,22.9,2.0 ± 0.2,0.03 ± 0.01,15.8,15.8,0.0005 ± 0.0001,1.15 ± 0.08,0.0047 ± 0.0004,2.35 ± 0.16,1.7 ± 0.1,0.04 ± 0.01,0.0009 ± 0.0005,3.04 ± 0.66,"binding that occurred with high affinity (M4 muscarinic receptor [2]; fraction of binding to M4): ~10%; Ki (M4 muscarinic receptor [2]; high-affinity fraction of binding to M4, read-out: high affinity binding): ~0.03 µM; Ki (M4 muscarinic receptor [2]; high-affinity fraction, M4, read-out: pKI of high affinity binding (converted)): 0.02 µM; Δlog(τ/KA) (M1 muscarinic receptor; [11]): 3.28 ± 0.38; Emax (M2 muscarinic receptor; [12]): 47 ± 2%; Kd (M2 muscarinic receptor; [14]): 20 µM; EC50 (M2 muscarinic receptor; [15]): 9.12 µM; Kd (M5 muscarinic receptor; [18]): 15.8 µM; EC50 (M5 muscarinic receptor; [19]): 15.1 µM"
